Results as given in the supplement of paper PMC10307832.

Assays:
Test in all cases: relative viability (nuclei count vs DMSO), 5 days (fraction); higher = more cells survive
[1] = compound: CCc1c2c(nc3ccc(OC(=O)N4CCC(N5CCCCC5)CC4)cc13)-c1cc3c(c(=O)n1C2)COC(=O)[C@]3(O)CC [Irinotecan] + COc1cccc2cc(-c3nc([C@H]4CC[C@H](C(=O)O)CC4)n4ncnc(N)c34)[nH]c12 [OSI-027] (partner 0.5 µM)
Method in brief: (§1)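 Relative viability is defined as nuclei in treated wells over nuclei in vehicle wells. Duplicate plates were run and medians reported. Lung cancer cell lines in 1536-well plates were dosed by pin tool one day after seeding, with one drug or with a fixed anchor-drug dose plus five library-drug doses (not always all listed) in √10 steps, and nuclei were counted after 5 days.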

[2] = compound: CC[C@@H](C)CNCC(=O)N1CCC2=C([C@@H]1COC3=CC=CC(=C3)C)C=CS2 [RU-SKI 43] + Cc1nc(Nc2ncc(C(=O)Nc3c(C)cccc3Cl)s2)cc(N2CCN(CCO)CC2)n1 [Dasatinib] (partner 0.075 µM)
Method in brief: as §1

[3] = compound: CC[C@@H](C)CNCC(=O)N1CCC2=C([C@@H]1COC3=CC=CC(=C3)C)C=CS2 [RU-SKI 43] + CCNC(=O)c1noc(-c2cc(C(C)C)c(O)cc2O)c1-c1ccc(CN2CCOCC2)cc1 [Luminespib] (partner 0.01 µM)
Method in brief: as §1

[4] = compound: Cn1cc(-c2cnc3ccc4ccc(CS(=O)(=O)NCc5ccccn5)cc4c(=O)c3c2)cn1 [MK-8033] + O=C(CCCCCCC(=O)Nc1ccccc1)NO [Vorinostat] (partner 1 µM)
Method in brief: as §1

## NCI-H2170
[1]; first compound 0.6325 µM
  relative viability: 0.546
[1]; first compound 2 µM
  relative viability: 0.767
[1]; first compound 6.325 µM
  relative viability: 0.255
[1]; first compound 20 µM
  relative viability: 0.174
[2]; first compound 0.1 µM
  relative viability: 0.695
[2]; first compound 0.3162 µM
  relative viability: 0.634
[2]; first compound 1 µM
  relative viability: 0.616
[2]; first compound 3.162 µM
  relative viability: 0.716
[2]; first compound 10 µM
  relative viability: 0.467
[3]; first compound 0.1 µM
  relative viability: 0.751
[3]; first compound 0.3162 µM
  relative viability: 0.73
[3]; first compound 1 µM
  relative viability: 0.73
[3]; first compound 3.162 µM
  relative viability: 0.755
[3]; first compound 10 µM
  relative viability: 0.67
[4]; first compound 0.02 µM
  relative viability: 0.802
[4]; first compound 0.06325 µM
  relative viability: 0.882
[4]; first compound 0.2 µM
  relative viability: 0.691
[4]; first compound 0.6325 µM
  relative viability: 0.768
[4]; first compound 2 µM
  relative viability: 0.79

## NCI-H2228
[1]; first compound 0.6325 µM
  relative viability: 0.341
[1]; first compound 2 µM
  relative viability: 0.472
[1]; first compound 6.325 µM
  relative viability: 0.288
[1]; first compound 20 µM
  relative viability: 0.342
[2]; first compound 0.1 µM
  relative viability: 0.74
[2]; first compound 0.3162 µM
  relative viability: 0.658
[2]; first compound 1 µM
  relative viability: 0.486
[2]; first compound 3.162 µM
  relative viability: 0.555
[2]; first compound 10 µM
  relative viability: 0.425
[3]; first compound 0.1 µM
  relative viability: 0.178
[3]; first compound 0.3162 µM
  relative viability: 0.15
[3]; first compound 1 µM
  relative viability: 0.177
[3]; first compound 3.162 µM
  relative viability: 0.149
[3]; first compound 10 µM
  relative viability: 0.199
[4]; first compound 0.02 µM
  relative viability: 0.594
[4]; first compound 0.06325 µM
  relative viability: 0.562
[4]; first compound 0.2 µM
  relative viability: 0.417
[4]; first compound 0.6325 µM
  relative viability: 0.696
[4]; first compound 2 µM
  relative viability: 0.821

## NCI-H2342
[1]; first compound 0.6325 µM
  relative viability: 0.58
[1]; first compound 2 µM
  relative viability: 0.551
[1]; first compound 6.325 µM
  relative viability: 0.607
[1]; first compound 20 µM
  relative viability: 0.439
[2]; first compound 0.1 µM
  relative viability: 0.34
[2]; first compound 0.3162 µM
  relative viability: 0.313
[2]; first compound 1 µM
  relative viability: 0.321
[2]; first compound 3.162 µM
  relative viability: 0.319
[2]; first compound 10 µM
  relative viability: 0.317
[3]; first compound 0.1 µM
  relative viability: 0.686
[3]; first compound 0.3162 µM
  relative viability: 0.667
[3]; first compound 1 µM
  relative viability: 0.713
[3]; first compound 3.162 µM
  relative viability: 0.62
[3]; first compound 10 µM
  relative viability: 0.617
[4]; first compound 0.02 µM
  relative viability: 0.859
[4]; first compound 0.06325 µM
  relative viability: 0.728
[4]; first compound 0.2 µM
  relative viability: 0.643
[4]; first compound 0.6325 µM
  relative viability: 0.79
[4]; first compound 2 µM
  relative viability: 0.731

## NCI-H2347
[1]; first compound 0.6325 µM
  relative viability: 0.27
[1]; first compound 2 µM
  relative viability: 0.375
[1]; first compound 6.325 µM
  relative viability: 0.337
[1]; first compound 20 µM
  relative viability: 0.386
[2]; first compound 0.1 µM
  relative viability: 0.34
[2]; first compound 0.3162 µM
  relative viability: 0.23
[2]; first compound 1 µM
  relative viability: 0.364
[2]; first compound 3.162 µM
  relative viability: 0.203
[2]; first compound 10 µM
  relative viability: 0.293
[3]; first compound 0.1 µM
  relative viability: 0.443
[3]; first compound 0.3162 µM
  relative viability: 0.717
[3]; first compound 1 µM
  relative viability: 0.639
[3]; first compound 3.162 µM
  relative viability: 0.357
[3]; first compound 10 µM
  relative viability: 0.35
[4]; first compound 0.02 µM
  relative viability: 0.544
[4]; first compound 0.06325 µM
  relative viability: 0.537
[4]; first compound 0.2 µM
  relative viability: 0.501
[4]; first compound 0.6325 µM
  relative viability: 0.717
[4]; first compound 2 µM
  relative viability: 0.597

## NCI-H2405
[1]; first compound 2 µM
  relative viability: 0.596
[1]; first compound 6.325 µM
  relative viability: 0.382
[1]; first compound 20 µM
  relative viability: 0.289
[2]; first compound 0.1 µM
  relative viability: 0.213
[2]; first compound 0.3162 µM
  relative viability: 0.198
[2]; first compound 1 µM
  relative viability: 0.218
[2]; first compound 3.162 µM
  relative viability: 0.209
[2]; first compound 10 µM
  relative viability: 0.194
[3]; first compound 0.1 µM
  relative viability: 0.639
[3]; first compound 0.3162 µM
  relative viability: 0.474
[3]; first compound 1 µM
  relative viability: 0.543
[3]; first compound 3.162 µM
  relative viability: 0.736
[3]; first compound 10 µM
  relative viability: 0.486
[4]; first compound 0.02 µM
  relative viability: 1.1
[4]; first compound 0.06325 µM
  relative viability: 0.988
[4]; first compound 0.2 µM
  relative viability: 0.9
[4]; first compound 0.6325 µM
  relative viability: 1.06
[4]; first compound 2 µM
  relative viability: 1.04

## NCI-H3122
[1]; first compound 0.6325 µM
  relative viability: 1.04
[1]; first compound 2 µM
  relative viability: 0.649
[1]; first compound 6.325 µM
  relative viability: 0.22
[1]; first compound 20 µM
  relative viability: 0.0566
[2]; first compound 0.1 µM
  relative viability: 0.959
[2]; first compound 0.3162 µM
  relative viability: 0.913
[2]; first compound 1 µM
  relative viability: 0.806
[2]; first compound 3.162 µM
  relative viability: 0.778
[2]; first compound 10 µM
  relative viability: 0.838
[3]; first compound 0.1 µM
  relative viability: 0.0907
[3]; first compound 0.3162 µM
  relative viability: 0.0845
[3]; first compound 1 µM
  relative viability: 0.103
[3]; first compound 3.162 µM
  relative viability: 0.0966
[3]; first compound 10 µM
  relative viability: 0.0897
[4]; first compound 0.02 µM
  relative viability: 0.834
[4]; first compound 0.06325 µM
  relative viability: 1.3
[4]; first compound 0.2 µM
  relative viability: 0.879
[4]; first compound 0.6325 µM
  relative viability: 1.14
[4]; first compound 2 µM
  relative viability: 1.01

## PC-3 [JPC-3]
[1]; first compound 0.6325 µM
  relative viability: 0.46
[1]; first compound 2 µM
  relative viability: 0.785
[1]; first compound 6.325 µM
  relative viability: 0.397
[1]; first compound 20 µM
  relative viability: 0.344
[2]; first compound 0.1 µM
  relative viability: 1.07
[2]; first compound 0.3162 µM
  relative viability: 1.09
[2]; first compound 1 µM
  relative viability: 0.973
[2]; first compound 3.162 µM
  relative viability: 0.968
[2]; first compound 10 µM
  relative viability: 0.939
[3]; first compound 0.1 µM
  relative viability: 0.738
[3]; first compound 0.3162 µM
  relative viability: 0.633
[3]; first compound 1 µM
  relative viability: 0.795
[3]; first compound 3.162 µM
  relative viability: 0.615
[3]; first compound 10 µM
  relative viability: 0.537
[4]; first compound 0.02 µM
  relative viability: 0.886
[4]; first compound 0.2 µM
  relative viability: 0.77
[4]; first compound 0.6325 µM
  relative viability: 0.924
[4]; first compound 2 µM
  relative viability: 0.817

## PC-14
[1]; first compound 0.6325 µM
  relative viability: 0.286
[1]; first compound 2 µM
  relative viability: 0.498
[1]; first compound 6.325 µM
  relative viability: 0.243
[1]; first compound 20 µM
  relative viability: 0.117
[2]; first compound 0.1 µM
  relative viability: 0.242
[2]; first compound 0.3162 µM
  relative viability: 0.25
[2]; first compound 1 µM
  relative viability: 0.283
[2]; first compound 3.162 µM
  relative viability: 0.241
[2]; first compound 10 µM
  relative viability: 0.183
[3]; first compound 0.1 µM
  relative viability: 0.146
[3]; first compound 0.3162 µM
  relative viability: 0.143
[3]; first compound 1 µM
  relative viability: 0.126
[3]; first compound 3.162 µM
  relative viability: 0.157
[3]; first compound 10 µM
  relative viability: 0.159
[4]; first compound 0.02 µM
  relative viability: 0.708
[4]; first compound 0.06325 µM
  relative viability: 0.52
[4]; first compound 0.2 µM
  relative viability: 0.683
[4]; first compound 0.6325 µM
  relative viability: 0.797
[4]; first compound 2 µM
  relative viability: 0.599
